Patent publication US12421497B2, “Method for enriching cardiac myocytes” (Orizuru Therapeutics, Inc., priority 2019, dated 2025)
Like-named read-outs stand apart in the source and are kept apart here.

Columns and labels:
[1] = test system: atrial myocyte; conditions: cited from earlier work
[2] = test system: “CD151-low” cell subpopulation obtained under conditions for differentiation into atrial myocytes; experiment: Membrane potential analysis (FluoVolt dye) of response to atrial myocyte-specific channel inhibitor or activator, CD151-low cells; format: cell-based, human; conditions: 3 Hz pacing
Description: (§1) The “CD151-high” cell subpopulation was obtained under conditions for differentiation into ventricular myocytes and the “CD151-low” cell subpopulation was obtained under conditions for differentiation into atrial myocytes in Test Example 2. Then, their response to an atrial […] channel inhibitor 4-aminopyridine or activator carbachol was analyzed.
(§2) Each cell subpopulation was seeded at 5×10^4 cells/5 μL and cultured on a glass-bottom dish coated with fibronectin. StemPro-34 SFM containing 1% L-glutamine, 150 μg/mL transferrin, 50 μg/mL ascorbic acid, 4×10^−4 M monothioglycerol, and 5 ng/ml VEGF was used. The culture medium was changed every 3 days, and the cells were cultured at 37° C. under regular oxygen conditions. The cells at culture days 6 to 10 were subjected to membrane potential analysis.
(§3) First, the culture medium was removed. Next, 0.2 μL of membrane potential sensitive dye (FluoVolt, ThermoFisher scientific, F10488) was added per 200 μL of Gey's balanced salt solution (Sigma). […] Each “CD151-high”-induced cell was analyzed under 1 Hz pacing, and each “CD151-low”-induced cell was analyzed under 3 Hz pacing.
(§4) An AquaCosmos2.6 (Hamamatsu Photonics K. K.) was used for the analysis. While each cell was irradiated with excitation light at 490 nm every 5.9 ms for 20 s, the fluorescence response was measured. […]

[3] = test system: “CD151-high” cell subpopulation obtained under conditions for differentiation into ventricular myocytes; experiment: Membrane potential analysis (FluoVolt dye) of response to atrial myocyte-specific channel inhibitor or activator, CD151-high cells; format: cell-based, human; conditions: 1 Hz pacing
Description: as §1, §2, §3, §4

[4] = test system: ventricular myocyte; conditions: cited from earlier work
[5] = 4-aminopyridine 50 μM final, 10 min after addition, FIG. 5(A)
[6] = carbachol 10 μM final, 1 min after addition, FIG. 5(B)

Row | Structure (SMILES) | effect on APD20 ([1]; 4-aminopyridine added to a cell, blocker of ultra-rapidly activating delayed rectifier potassium channel (IKur)) | effect on action potential duration (APD) [2, 5] | effect on action potential duration (APD) [3, 5] | effect on APD ([4]; 4-aminopyridine added to a cell) | effect on action potential duration (APD) ([1]; carbachol added to a cell, activator of muscarinic potassium channel (IK,Ach)) | effect on action potential duration (APD) [2, 6] | effect on action potential duration (APD) [3, 6] | effect on APD ([4]; carbachol added to a cell)
1 | Nc1ccncc1 [4-aminopyridine] | prolonged only in the atrial myocyte | prolong the action potential duration (APD) | little APD extension | not affected |  |  |  | 
2 | C[N+](C)(C)CCOC(N)=O [carbachol] |  |  |  |  | shortened only in the atrial myocyte | shorten the APD | no APD change | not affected
